Test results taken from patent US20250222009A1, “DINUCLEAR GOLD(I) COMPLEXES FOR TREATING CANCER” (KING FAHD UNIVERSITY OF PETROLEUM AND MINERALS, priority 2024, published 2025).

Legend:
[1] = system: PC3 (androgen-resistant prostate cancer); experiment: MTT cytotoxicity assay, PC3; assay type: cell-based; details: 72 h, mean (SD)
Protocol: The human epithelial ovarian cancer A2780 cell line and its cisplatin-resistant clone A2780cis were obtained from Sigma-Aldrich (Milano, Italy). A2780cis cells were continuously exposed to 1 μM cisplatin to maintain cisplatin resistance. A549 cells (Human non-small cell lung cancer), MCF7 (metastatic breast cancer), PC3 (highly aggressive metastatic prostate cancer), and MG63 (osteosarcoma) were obtained from the American Type Culture Collection (ATCC). Cells were authenticated in laboratory using the PowerPlex 16 HS System. A2780, A2780cis, and PC3 cells were cultured in RPMI-1640 medium; MG63 and MCF7 cells were cultured in DMEM, and A549 cells were cultured in F12 NUT-MIX. The culture medium contained about 10% fetal bovine serum (FBS) (Gibco, Thermo Fisher Scientific, Monza, Italy), about 1% (v/v) of penicillin (10,000 units/mL)-streptomycin (10 mg/mL), and about 1% (v/v) L-glutamine (200 mM) (all from Sigma-Aldrich). Cells were cultured at 37° C. in a 5% CO2, fully humidified atmosphere.
2.5×10^3 (PC3, MG63, MCF7) or 4.0×10^3 (A2780, A2780cis, A549) cells were seeded in 96-well microplates in 100 μL culture medium. Cells, allowed to adhere for 24 h, were then treated in triplicate with increasing concentrations of gold compounds. Cisplatin was included as a reference drug. Cell viability was evaluated using 3-(4,5-dimethylthiazol-2-yl)-2,5-diphenyltetrazolium bromide (MTT) assay (Sigma-Aldrich) after 72 h of treatment. Half maximal inhibitory concentrations (IC50), IC25, and IC75 were calculated using the CalcuSyn software version 2 (Biosoft, Ferguson, MO, USA) (See: Chou, T. C.; Talalay, P. Quantitative Analysis of Dose-Effect Relationships: The Combined Effects of Multiple Drugs or Enzyme Inhibitors. Adv. Enzyme Regul. 1984, 22, 27-55, which is incorporated herein by reference in its entirety). Fold resistance was calculated as the ratio of the IC50 of the A2780cis to that of the parental cell line A2780. Alternatively, cell viability was assayed by crystal violet staining (See: Feoktistova, M.; Geserick, P.; Leverkus, M. Crystal Violet Assay for Determining Viability of Cultured Cells. Cold Spring Harb Protoc 2016, 2016, pdb.prot087379, which is incorporated herein by reference in its entirety). Alternatively, after drug treatment, the culture Medium was removed, cells washed, fixed, and stained, and the Crystal Violet solution lasted 20 minutes (See: Sulaiman, A. A. A.; Casagrande, N.; Borghese, C.; Corona, G.; Isab, A. A.; Ahmad, S.; Aldinucci, D.; Altaf M. Design, Synthesis, and Preclinical Activity in Ovarian Cancer Models of New Phosphanegold(I)—N-Heterocyclic Carbene Complexes. J Med Chem 2022, 65, 14424-14440, which is incorporated herein by reference in its entirety).

caspase-3,7 = experiment: Caspase-3,7 activation (CaspaTag/FLICA), flow cytometry; assay type: cell-based, human; details: A549, 24 h
Protocol: (§1) 2.0×10^5 A549 cells were seeded in 6-well plates in a complete medium and treated with the complex 3. Assay results were detected by flow cytometry on a BD FACSCanto II flow cytometer. Data were analyzed using BD FACSDiva v.8.0.1 software (BD Biosciences) unless otherwise indicated. Tumor cells were treated for 72 h with complex 3, then stained for 15 minutes with FITC Annexin-V (Thermo Fisher Scientific) and 7AAD (BD Pharmingen, Milan, Italy). Activated caspase-3,7 was detected using the CaspaTag Caspase-3,7 assay (Merck Millipore) after an incubation of 24 h with complex 3. For B-cell lymphoma/leukemia-2 protein (Bcl-2) and Bcl-2 associated x protein (Bax) analysis, cells were treated for 72 h with C3, then fixed and permeabilized (FIX & PERM Cell Fixation & Cell Permeabilization Kit, Life Technologies). […] The distribution of cells in different cell cycle phases was quantified using ModFit LT 4.0 software (Verity Software House, Topsham, ME, USA) (See: Sulaiman, A. A. A.; Casagrande, N.; Borghese, C.; Corona, G.; Isab, A. A.; Ahmad, S.; Aldinucci, D.; Altaf M. Design, Synthesis, and Preclinical Activity in Ovarian Cancer Models of New Phosphanegold(I)—N-Heterocyclic Carbene Complexes. J Med Chem 2022, 65, 14424-14440, which is incorporated herein by reference in its entirety). […]

ALDH1 = ALDH1 enzymatic activity (Aldeflour), flow cytometry; assay type: cell-based, human; details: A549, 24 h
Protocol: as §1

CD133 = CD133 surface expression, flow cytometry; assay type: cell-based, human; details: A549, 24 h
Protocol: as §1

CD44 = CD44 surface expression, flow cytometry; assay type: cell-based, human; details: A549, 24 h
Protocol: as §1

NOTCH1 = NOTCH1 surface expression, flow cytometry; assay type: cell-based, human; details: A549, 24 h
Protocol: as §1

CC(C)c1cccc(C(C)C)c1-n1ccn(-c2c(C(C)C)cccc2C(C)C)[c]1=[Au-][P+](CCNCC[P+]([Au-]=[c]1n(-c2c(C(C)C)cccc2C(C)C)ccn1-c1c(C(C)C)cccc1C(C)C)(C1CCCCC1)C1CCCCC1)(C1CCCCC1)C1CCCCC1 [Complex 3, [(Au(IPr))2(C28H24P2)](PF6)2]
IC50 [1]: 240 nM
caspase-3,7 activation (caspase-3,7): activated
ALDH1 enzymatic activity (ALDH1): reduced
CD133 expression levels (CD133): reduced
CD44 expression (CD44): decreased
NOTCH1 expression (NOTCH1): decreased in a dose-dependent manner
